{"source": "patent US20200368211A1", "about": "“INHIBITION OF GAMMA-GLUTAMYLTRANSFERASE AND GLUTATHIONE CATABOLISM TO ENHANCE THE EFFICACY OF NF-KB SIGNALLING PATHWAY INHIBITORS” (UNIVERSITAET HEIDELBERG, priority 2017, published 2020)", "key": {"[1]": {"conditions": "human plasma, stated as achievable; cited from earlier work"}, "[2]": {"tested_on": "MOLM13 cells", "experiment": "MTT cell proliferation assay, MOLM13 cells", "assay_type": "cell-based, human", "conditions": "for Effect of auranofin and BSO low-dose combination on activity of NF-κB inhibitors, MOLM13: auranofin 0.25-0.5 μM plus BSO 1.25-10 μM with BAY 11-7082 or EF24", "experimental": "For metabolic activity assays, here MTT-assays, cell density was 3×10^4 cells per well (96 well plate). For ROS/superoxide detection assays cell density was 1×10^5 per tube (volume 1 ml). […] The MTT or XTT assay is the most reliable for assessment of cell growth. In principal all assays are based on staining of viable cells after treatment. Cytotoxic effects in cell lines may also be assessed by [^3H] thymidine incorporation (see below). Cell proliferation was assessed by the MTT assay. […] The plates were incubated for 72 h under standard conditions. After addition of 15 μl of a 5 mg/ml MTT solution (MTT; Sigma, Germany) to each well and incubation for another 4 h, 100 μl/well of a 10% sodium dodecyl sulphate solution in 0.01 M hydrochloric acid were added and the plates were incubated overnight under the same conditions (stain development). Subsequently, the absorbance of each well at 540 nm (reference wavelength 690 nm) was recorded with an absorbance plate reader (Sunrise, Tecan, Switzerland). Blank control values (no drug, no cells) were subtracted from the sample values and the means of replicate wells for each drug dilution and the control (cells grown in absence of the drug) were used to calculate the extent of relative cell proliferation (as percentage of the control) and growth inhibition."}, "[3]": {"tested_on": "MEC1 cells", "experiment": "MTT cell proliferation assay, MEC1 cells", "assay_type": "cell-based, human", "conditions": "for Effect of auranofin and BSO low-dose combination on activity of NF-κB inhibitors, MEC1: auranofin 0.25-0.5 μM plus BSO 1.25-10 μM with BAY 11-7082 or EF24", "experimental": "For metabolic activity assays, here MTT-assays, cell density was 3×10^4 cells per well (96 well plate). For ROS/superoxide detection assays cell density was 1×10^5 per tube (volume 1 ml). For NF-κB family member activation assays nuclear cell extracts were used (9×10^6 cells/6 ml volume in 6 well plates). The MTT or XTT assay is the most reliable for assessment of cell growth. In principal all assays are based on staining of viable cells after treatment. Cytotoxic effects in cell lines may also be assessed by [^3H] thymidine incorporation (see below). Cell proliferation was assessed by the MTT assay. […] The plates were incubated for 72 h under standard conditions. After addition of 15 μl of a 5 mg/ml MTT solution (MTT; Sigma, Germany) to each well and incubation for another 4 h, 100 μl/well of a 10% sodium dodecyl sulphate solution in 0.01 M hydrochloric acid were added and the plates were incubated overnight under the same conditions (stain development). Subsequently, the absorbance of each well at 540 nm (reference wavelength 690 nm) was recorded with an absorbance plate reader (Sunrise, Tecan, Switzerland). Blank control values (no drug, no cells) were subtracted from the sample values and the means of replicate wells for each drug dilution and the control (cells grown in absence of the drug) were used to calculate the extent of relative cell proliferation (as percentage of the control) and growth inhibition."}, "[4]": {"tested_on": "NF-κB family of transcription factors (p65, p50, c-Rel, p52 and RelB)", "experiment": "NF-κB family member activation (TransAM, nuclear extracts), MOLM13 cells", "assay_type": "cell-based, human", "conditions": "200 μM OU749, 10% HS, 4 h", "experimental": "(§1) After 4 h incubation with defined concentrations of inhibitors of the NF-κB signalling pathway with or without co-incubation with OU749, nuclear extracts were prepared using the AM nuclear extract kit (Active Motif, La Hulpe, Belgium) according to the manufacturer's protocol. Protein concentration of the respective extracts was measured according to the Bradford method and 10 μg of total protein per preparation was used for assessment of the NF-κB family member activation.\n(§2) For the assessment of NF-κB family member activation (p65, p50, c-Rel, p52 and RelB) the TransAM® NF-κB Family Transcription Factor Assay kit was applied (Active Motif, La Hulpe, Belgium) according to the manufacturer's instructions. Results were expressed as relative activation levels (relative to the activation of DMSO controls either in the presence of 10% FCS or 10% HS) and compared between different experimental settings."}, "[5]": {"tested_on": "NF-κB family of transcription factors (p65, p50, c-Rel, p52 and RelB)", "experiment": "NF-κB family member activation (TransAM, nuclear extracts), MEC1 cells", "assay_type": "cell-based, human", "conditions": "200 μM OU749, 10% HS, 4 h", "experimental": "as §1, §2"}, "[6]": {"tested_on": "MEC1 cells", "experiment": "Intracellular ROS/superoxide detection by flow cytometry, MEC1 cells", "assay_type": "cell-based, human", "experimental": "(§3) Intracellular ROS/superoxide levels were assessed by the ROS/superoxide Detection Assay Kit (ab139476, Abcam, Cambridge, UK) according to the manufacturer's protocol.\n(§4) Cells were incubated with OU749 for 10 minutes prior to addition of serum or albumin (FCS or HS, both 10%, BSA or different HSA preparations as indicated), or albumin-supplemented FCS (supplementation with HSA or BSA: final albumin concentration 4-5 mg/ml). The final cell concentration was 1×10^5/ml/tube (volume 1 ml). Mean fluorescence intensities of at least 10000 events were assessed and compared.\n(§5) ROS and superoxide levels were assessed by flow cytometry using the cellular ROS/superoxide Detection Assay Kit (ab139476, Abcam, Cambridge, UK) according to the manufacturer's protocol. […] Mean fluorescence intensities of at least 10000 events were assessed and compared."}, "[7]": {"tested_on": "MOLM13 cells", "experiment": "Intracellular ROS/superoxide detection by flow cytometry, MOLM13 cells", "assay_type": "cell-based, human", "experimental": "as §3, §4, §5"}, "[8]": {"tested_on": "HL60 cells", "experiment": "MTT cell proliferation assay, HL60 cells", "assay_type": "cell-based, human", "conditions": "200 μM OU749, 10% HS", "experimental": "For assessment of cytostatic and/or cytotoxic effects HL60 cells were washed in serum-free RPMI-1640 medium supplemented with 2 mM L-glutamine and 1% penicillin/streptomycin and diluted to 1.25×10^5/ml (logarithmic cell growth). Cells were incubated with OU749 for 10 minutes prior to addition of serum (FCS or HS, both 10%) to washed cells resulting in a density of 1.11×10^5/ml. For MTT-assays cell density was 1×10^4 cells per well (96 well plate).\nThe MTT or XTT assay is the most reliable for assessment of cell growth. In principal all assays are based on staining of viable cells after treatment. Cytotoxic effects in cell lines may also be assessed by [^3H] thymidine incorporation (see below). Cell proliferation was assessed by the MTT assay. After washing in serum-free medium, pre-incubation with inhibitors of the glutathione catabolism, and addition of defined serum or albumin or serum+albumin concentrations, 90-μl aliquots of the cell suspension (density see above) were dispensed into 96-well flat-bottomed microtitre plates containing 10 μl/well of serial drug dilutions. The plates were incubated for 72 h under standard conditions. After addition of 15 μl of a 5 mg/ml MTT solution (MTT; Sigma, Germany) to each well and incubation for another 4 h, 100 μl/well of a 10% sodium dodecyl sulphate solution in 0.01 M hydrochloric acid were added and the plates were incubated overnight under the same conditions (stain development). Subsequently, the absorbance of each well at 540 nm (reference wavelength 690 nm) was recorded with an absorbance plate reader (Sunrise, Tecan, Switzerland). Blank control values (no drug, no cells) were subtracted from the sample values and the means of replicate wells for each drug dilution and the control (cells grown in absence of the drug) were used to calculate the extent of relative cell proliferation (as percentage of the control) and growth inhibition. Since inhibitors were initially dissolved in DMSO, serial drug dilutions and controls were prepared to finally achieve 0.2% DMSO in all wells (total volume 100 μl); no anti-proliferative effects could be observed at this DMSO concentration in the investigated cell lines.\nAfter washing in serum-free medium cells were diluted to desired density (3.70×10^5/ml for MEC1 and MOLM13, 1.25×10^5/ml for HL60) and HS and FCS was added both in a final concentration of 10%. Then 90-μl aliquots of the cell suspension (densities after addition of serum: 3.33×10^5/ml for MEC1 and MOLM13, 1.1×10^5/ml for HL60) were dispensed into 96-well flat-bottomed microtitre plates containing 10 μl/well of serial drug dilutions of NF-κB inhibitors. The cell concentrations in the 96 well plate were: 3×10^4/well for MEC1 and MOLM13, 1×10^4/well for HL60.\nThen 90-μl aliquots of the cell suspension (densities after addition of serum: 3.33×10^5/ml for MEC1 and MOLM13, 1.1×10^5/ml for HL60) were dispensed into 96-well flat-bottomed microtitre plates containing 10 μl/well of serial drug dilutions of NF-κB inhibitors. The cell concentrations in the 96 well plates were: 3×10^4/well for MEC1 and MOLM13, 1×10^4/well for HL60."}, "[9]": {"conditions": "OU749 100 μM for 10% FCS, 200 μM for 10% HS or BSA/HSA 20 mg/ml, versus DMSO"}, "[10]": {"conditions": "with BAY 11-7082, 10% FCS (to a lesser extent 10% HS), versus H2O"}}, "note": "“Also recorded” adds a separate entry of the source.", "data": [{"smiles": "C/C(O)=C(\\C#N)C(=O)Nc1ccc(C(F)(F)F)cc1", "note": "[A77 726]", "values": [{"measurement": "Achievable plasma concentrations of the active metabolite of leflunomide", "setting": "[1]", "result": "about 176 μg/ml; also recorded: about 635 μM"}]}, {"smiles": "CCCCS(=N)(=O)CCC(N)C(=O)O", "note": "(centres unmarked) [BSO, buthionine sulfoximine]", "values": [{"measurement": "Effect of auranofin and BSO low-dose combination on activity of NF-κB inhibitors, MOLM13", "setting": "[2]; 10% HS", "result": "enhance/restore the activity of NF-κB inhibitors"}, {"measurement": "Effect of auranofin and BSO low-dose combination on activity of NF-κB inhibitors, MEC1", "setting": "[3]; 10% HS", "result": "enhance/restore the activity of NF-κB inhibitors"}]}, {"smiles": "COc1ccc(Cc2nnc(NS(=O)(=O)c3ccccc3)s2)cc1", "note": "[OU749, N-[5-(4-methoxybenzyl)-1,3,4-thiadiazol-2-yl]benzenesulfonamide]", "values": [{"measurement": "Nuclear levels of NF-κB transcription factors, OU749 alone in HS, MOLM13", "setting": "[4]", "result": "increased nuclear levels of different members of the NF-κB family of transcription factors"}, {"measurement": "Nuclear levels of NF-κB transcription factors, OU749 alone in HS, MEC1", "setting": "[5]", "result": "increased nuclear levels of different members of the NF-κB family of transcription factors"}, {"measurement": "ROS levels, OU749 versus DMSO, MEC1 in HS medium", "setting": "[6]; 200 μM OU749, 10% HS", "result": "enhanced ROS levels"}, {"measurement": "Intracellular ROS levels, OU749 in presence of serum and albumin, MEC1", "setting": "[6]; [9]", "result": "increases intracellular ROS levels"}, {"measurement": "Toxic effects of OU749 in HS-supplemented systems, MOLM13", "setting": "[2]; 200 μM OU749, 10% HS", "result": "no toxic effects"}, {"measurement": "OU749 concentration above which anti-proliferative effects are apparent, MOLM13, 10% FCS", "setting": "[2]; 10% FCS, 72 h, single agent", "result": "above 50 μM"}, {"measurement": "OU749 concentration at which anti-proliferative effects appear, MOLM13, 10% HS", "setting": "[2]; 10% HS, 72 h, single agent", "result": "≥ 200", "unit": "µM"}, {"measurement": "Toxic effects of OU749 in HS-supplemented systems, MEC1", "setting": "[3]; 200 μM OU749, 10% HS", "result": "no toxic effects"}, {"measurement": "OU749 concentration above which anti-proliferative effects are apparent, MEC1, 10% FCS", "setting": "[3]; 10% FCS, 72 h, single agent", "result": "above 50 μM"}, {"measurement": "OU749 concentration at which anti-proliferative effects appear, MEC1, 10% HS", "setting": "[3]; 10% HS, 72 h, single agent", "result": "≥ 200", "unit": "µM"}, {"measurement": "ROS levels, OU749 versus DMSO, MOLM13 in HS medium", "setting": "[7]; 200 μM OU749, 10% HS", "result": "enhanced ROS levels"}, {"measurement": "Intracellular ROS levels, OU749 in presence of serum and albumin, MOLM13", "setting": "[7]; [9]", "result": "increases intracellular ROS levels"}, {"measurement": "Toxic effects of OU749 in HS-supplemented systems, HL60", "setting": "[8]", "result": "no toxic effects"}]}, {"smiles": "CC(=O)OC[C@H]1O[C@@H]([S-])[C@H](OC(C)=O)[C@@H](OC(C)=O)[C@@H]1OC(C)=O.CCP(CC)CC.[Au+]", "note": "[auranofin]", "values": [{"measurement": "Effect of auranofin and BSO low-dose combination on activity of NF-κB inhibitors, MOLM13", "setting": "[2]; 10% HS", "result": "enhance/restore the activity of NF-κB inhibitors"}, {"measurement": "Effect of auranofin and BSO low-dose combination on activity of NF-κB inhibitors, MEC1", "setting": "[3]; 10% HS", "result": "enhance/restore the activity of NF-κB inhibitors"}]}, {"smiles": "N[C@@H](CS)C(=O)NCC(=O)O", "note": "[cysteinyl-glycin]", "values": [{"measurement": "Effect of cysteinyl-glycin on activity of NF-κB inhibitors, MOLM13", "setting": "[2]; [10]", "result": "decrease the activity of NF-κB inhibitors"}, {"measurement": "Effect of cysteinyl-glycin on activity of NF-κB inhibitors, MEC1", "setting": "[3]; [10]", "result": "decrease the activity of NF-κB inhibitors"}]}]}
